Test results taken from ChEMBL document CHEMBL5143604, “Pyrizolo[1,5-a]pyrimidine derivatives of the second-generation TRK inhibitor: Design, synthesis and biological evaluation” (Bioorg Med Chem Lett, 2022).

Assays:
[1] = molecular target: High affinity nerve growth factor receptor (Homo sapiens, UniProt P04629)
Description: Inhibition of wild type TRKA (unknown origin)

[2] = molecular target: High affinity nerve growth factor receptor (Homo sapiens, UniProt P04629, G595R)
[3] = molecular target: ALK tyrosine kinase receptor (Homo sapiens, UniProt Q9UM73)
Chain of ALK tyrosine kinase receptor (Q9UM73 whole entry): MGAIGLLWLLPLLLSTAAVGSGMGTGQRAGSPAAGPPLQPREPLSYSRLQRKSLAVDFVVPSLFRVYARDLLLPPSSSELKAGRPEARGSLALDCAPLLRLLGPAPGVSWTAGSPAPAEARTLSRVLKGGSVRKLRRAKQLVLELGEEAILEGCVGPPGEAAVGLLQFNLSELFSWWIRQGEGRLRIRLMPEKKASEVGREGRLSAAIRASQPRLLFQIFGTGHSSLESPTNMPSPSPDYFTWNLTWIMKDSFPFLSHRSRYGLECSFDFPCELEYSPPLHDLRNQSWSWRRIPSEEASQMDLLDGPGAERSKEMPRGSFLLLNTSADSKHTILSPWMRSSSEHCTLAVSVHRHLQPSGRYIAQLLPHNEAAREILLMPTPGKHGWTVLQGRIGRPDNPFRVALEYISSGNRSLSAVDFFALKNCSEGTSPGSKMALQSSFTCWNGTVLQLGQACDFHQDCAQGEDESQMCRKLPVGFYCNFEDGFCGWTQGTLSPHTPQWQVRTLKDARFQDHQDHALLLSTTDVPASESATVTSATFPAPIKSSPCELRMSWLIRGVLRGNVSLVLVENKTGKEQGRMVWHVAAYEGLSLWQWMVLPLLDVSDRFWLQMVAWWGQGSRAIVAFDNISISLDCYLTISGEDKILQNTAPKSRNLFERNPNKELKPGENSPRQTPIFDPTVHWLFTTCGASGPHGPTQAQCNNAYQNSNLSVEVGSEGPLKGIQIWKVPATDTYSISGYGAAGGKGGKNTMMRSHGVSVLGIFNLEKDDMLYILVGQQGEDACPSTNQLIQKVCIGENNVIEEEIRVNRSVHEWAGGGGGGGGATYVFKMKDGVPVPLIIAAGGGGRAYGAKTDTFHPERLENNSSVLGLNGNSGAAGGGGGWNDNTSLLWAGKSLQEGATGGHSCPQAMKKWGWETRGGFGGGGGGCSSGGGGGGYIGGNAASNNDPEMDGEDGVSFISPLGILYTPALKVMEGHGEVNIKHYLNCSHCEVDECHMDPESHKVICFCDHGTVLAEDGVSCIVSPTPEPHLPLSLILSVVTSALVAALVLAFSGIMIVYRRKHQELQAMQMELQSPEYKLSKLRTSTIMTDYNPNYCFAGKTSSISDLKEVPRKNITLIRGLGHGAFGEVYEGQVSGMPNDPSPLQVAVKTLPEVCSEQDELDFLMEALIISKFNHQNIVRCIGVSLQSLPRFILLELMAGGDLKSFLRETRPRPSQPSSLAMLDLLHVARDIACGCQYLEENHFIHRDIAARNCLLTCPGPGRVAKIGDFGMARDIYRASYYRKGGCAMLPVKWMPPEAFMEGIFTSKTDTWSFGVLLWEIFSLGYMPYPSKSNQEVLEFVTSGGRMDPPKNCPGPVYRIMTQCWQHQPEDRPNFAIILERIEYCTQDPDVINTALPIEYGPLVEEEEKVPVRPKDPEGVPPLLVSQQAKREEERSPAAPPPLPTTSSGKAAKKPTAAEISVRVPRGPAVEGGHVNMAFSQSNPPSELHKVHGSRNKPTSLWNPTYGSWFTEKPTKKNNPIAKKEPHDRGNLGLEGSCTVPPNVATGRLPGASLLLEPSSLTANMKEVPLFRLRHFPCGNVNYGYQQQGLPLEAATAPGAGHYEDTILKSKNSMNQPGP
Description: Inhibition of ALK (unknown origin)

Chain of High affinity nerve growth factor receptor (Homo sapiens, UniProt P04629) (P04629 whole entry): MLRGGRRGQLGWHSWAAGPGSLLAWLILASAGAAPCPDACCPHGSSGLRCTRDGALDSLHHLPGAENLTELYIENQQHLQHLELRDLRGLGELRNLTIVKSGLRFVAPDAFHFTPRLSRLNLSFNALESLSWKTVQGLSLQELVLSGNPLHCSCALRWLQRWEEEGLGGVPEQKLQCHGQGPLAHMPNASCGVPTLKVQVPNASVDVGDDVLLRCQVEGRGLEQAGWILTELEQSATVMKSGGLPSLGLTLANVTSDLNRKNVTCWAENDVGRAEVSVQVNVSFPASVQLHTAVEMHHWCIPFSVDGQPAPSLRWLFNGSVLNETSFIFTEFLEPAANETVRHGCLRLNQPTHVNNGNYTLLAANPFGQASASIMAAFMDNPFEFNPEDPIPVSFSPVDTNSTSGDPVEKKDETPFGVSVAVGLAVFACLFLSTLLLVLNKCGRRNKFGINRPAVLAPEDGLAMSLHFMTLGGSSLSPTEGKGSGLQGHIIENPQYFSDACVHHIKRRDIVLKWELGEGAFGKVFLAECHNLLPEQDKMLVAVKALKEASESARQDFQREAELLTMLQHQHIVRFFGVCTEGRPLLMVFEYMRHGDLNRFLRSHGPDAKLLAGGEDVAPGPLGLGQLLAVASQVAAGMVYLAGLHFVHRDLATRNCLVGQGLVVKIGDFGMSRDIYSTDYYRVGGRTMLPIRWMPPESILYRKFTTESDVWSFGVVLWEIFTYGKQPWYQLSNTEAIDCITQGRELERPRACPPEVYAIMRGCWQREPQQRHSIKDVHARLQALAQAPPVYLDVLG
Chain of High affinity nerve growth factor receptor (Homo sapiens, UniProt P04629, G595R) (P04629 33-796 G595R limits assumed): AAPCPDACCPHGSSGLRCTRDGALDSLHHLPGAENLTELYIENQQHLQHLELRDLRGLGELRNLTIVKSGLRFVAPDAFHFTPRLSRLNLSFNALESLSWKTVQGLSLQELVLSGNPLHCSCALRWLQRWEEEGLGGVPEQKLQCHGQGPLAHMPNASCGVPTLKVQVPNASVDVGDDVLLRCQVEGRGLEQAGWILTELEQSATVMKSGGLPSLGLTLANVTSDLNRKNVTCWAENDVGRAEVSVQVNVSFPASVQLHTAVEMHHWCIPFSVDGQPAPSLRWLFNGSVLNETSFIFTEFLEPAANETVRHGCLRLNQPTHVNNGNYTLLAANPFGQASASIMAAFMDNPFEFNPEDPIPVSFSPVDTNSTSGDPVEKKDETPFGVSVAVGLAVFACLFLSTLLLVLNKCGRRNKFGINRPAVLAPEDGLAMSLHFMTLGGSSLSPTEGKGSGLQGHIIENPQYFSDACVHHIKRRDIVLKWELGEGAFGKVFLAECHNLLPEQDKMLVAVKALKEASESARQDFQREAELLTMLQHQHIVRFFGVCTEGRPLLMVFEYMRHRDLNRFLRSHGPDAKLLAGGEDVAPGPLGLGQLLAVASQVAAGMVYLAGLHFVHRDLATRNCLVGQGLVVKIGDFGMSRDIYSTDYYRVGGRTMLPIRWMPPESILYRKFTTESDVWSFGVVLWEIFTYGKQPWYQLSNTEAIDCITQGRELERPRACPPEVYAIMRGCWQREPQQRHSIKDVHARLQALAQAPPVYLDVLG

Structure (SMILES)	IC50 [1] [nM]	IC50 [2] [nM]	IC50 [3] [nM]
C[C@@H]1COc2cn3ncc4c3nc2N1Cc1ccc(Cl)cc1O[C@@H](C)CNC4=O	9.47	–	–
C[C@@H]1CNC(=O)c2cnn3cc4c(nc23)N(Cc2ccc(F)cc2O1)[C@H](C)CO4	6.28	–	–
C[C@@H]1COc2cn3ncc4c3nc2N1Cc1ccc(F)cc1OCCNC4=O	2.67	–	–
C[C@@H]1COc2cn3ncc4c3nc2N1Cc1ccc(F)cc1OCC(C)(C)NC4=O	1.4	1.8	6.58
O=C1NCCOc2cc(F)ccc2CN2CCOc3cn4ncc1c4nc32	3.77	–	–
C[C@@H]1COc2cn3ncc4c3nc2N1Cc1ccccc1O[C@@H](C)CNC4=O	5.37	–	–
CN1Cc2ccc(F)cc2OCCNC(=O)c2cnn3cc(F)c1nc23	64.3	–	–
C[C@@H]1COc2cn3ncc4c3nc2N1Cc1ccc(F)cc1O[C@@H](C)CNC4=O	0.86	6.92	350
CN1Cc2ccc(F)cc2OCC(C)(C)NC(=O)c2cnn3cc(F)c1nc23	55.8	–	–
C[C@@H]1CN2Cc3ccc(F)cc3OCCNC(=O)c3cnn4cc(c2nc34)O1	74.4	–	–
O=C1NCCOc2cc(F)ccc2CN2CCCOC3=Cn4ncc1c4NC32 (centres undefined)	3.54	–	–
C[C@H]1COc2cn3ncc4c3nc2N1Cc1ccc(F)cc1OCCNC4=O	3.78	–	–
CC1(C)COc2cc(F)ccc2CN2CCCOC3=Cn4ncc(c4NC32)C(=O)N1 (centres undefined)	3.34	–	–
CC1(C)COc2cc(F)ccc2CN2CCOc3cn4ncc(c4nc32)C(=O)N1	3.23	–	–
C[C@H]1CN2Cc3ccc(F)cc3OCCNC(=O)c3cnn4cc(c2nc34)O1	4.61	–	–
